Measured values published in the CheMixHub viscosity set.

Assay: xn = mol fraction of the nth substance listed

CCOCCOCCOCC + CC1COC(=O)O1
viscosity [mPa·s], 101.33 kPa
Settings | 298.15 K | 308.15 K | 318.15 K
x1 = 0.013 | 2.474 | 2.024 | 1.703
x1 = 0.0542 | 2.418 | 1.982 | 1.658
x1 = 0.1089 | 2.353 | 1.923 | 1.605
x1 = 0.1594 | 2.288 | 1.875 | 1.555
x1 = 0.2136 | 2.225 | 1.827 | 1.506
x1 = 0.257 | 2.179 | 1.782 | 1.466
x1 = 0.3304 | 2.08 | 1.702 | 1.39
x1 = 0.4267 | 1.94 | 1.589 | 1.297
x1 = 0.497 | 1.833 | 1.504 | 1.227
x1 = 0.5874 | 1.717 | 1.404 | 1.152
x1 = 0.6907 | 1.589 | 1.306 | 1.076
x1 = 0.7876 | 1.474 | 1.219 | 1.01
x1 = 0.8704 | 1.377 | 1.148 | 0.957
x1 = 0.9264 | 1.316 | 1.101 | 0.922
x1 = 0.9628 | 1.289 | 1.071 | 0.901

C=CC(=O)OC(C)(C)C + CC#N
viscosity [mPa·s], 100 kPa
Settings | 293.15 K | 298.15 K | 303.15 K | 308.15 K | 313.15 K | 318.15 K
x2 = 0.0772 | 0.8592 | 0.787 | 0.72 | 0.664 | 0.6141 | 0.571
x2 = 0.1496 | 0.8154 | 0.7472 | 0.684 | 0.631 | 0.5837 | 0.5427
x2 = 0.2216 | 0.7728 | 0.7087 | 0.6493 | 0.5994 | 0.5548 | 0.5161
x2 = 0.2983 | 0.7282 | 0.6684 | 0.6132 | 0.5668 | 0.5252 | 0.489
x2 = 0.3643 | 0.6903 | 0.6344 | 0.5828 | 0.5393 | 0.5003 | 0.4663
x2 = 0.4345 | 0.6506 | 0.5988 | 0.5511 | 0.5107 | 0.4745 | 0.4426
x2 = 0.5074 | 0.61 | 0.5624 | 0.5187 | 0.4816 | 0.4481 | 0.4186
x2 = 0.5769 | 0.5719 | 0.5284 | 0.4885 | 0.4544 | 0.4236 | 0.3963
x2 = 0.6465 | 0.5345 | 0.495 | 0.459 | 0.4278 | 0.3997 | 0.3746
x2 = 0.7141 | 0.4991 | 0.4635 | 0.4312 | 0.403 | 0.3775 | 0.3546
x2 = 0.7821 | 0.4645 | 0.4329 | 0.4044 | 0.3793 | 0.3565 | 0.3358
x2 = 0.8603 | 0.4264 | 0.3994 | 0.3753 | 0.354 | 0.3344 | 0.3164
x2 = 0.9345 | 0.3923 | 0.3699 | 0.3502 | 0.3324 | 0.3162 | 0.301

COC(=O)c1ccccc1 + CC#N
viscosity [mPa·s], 101.33 kPa
Settings | x1 = 0.134 | x1 = 0.255 | x1 = 0.373 | x1 = 0.48 | x1 = 0.57 | x1 = 0.666 | x1 = 0.752 | x1 = 0.837 | x1 = 0.922
293.15 K | 0.444 | 0.476 | 0.515 | 0.624 | 0.676 | 0.805 | 0.958 | 1.128 | 1.508
303.15 K | 0.4 | 0.43 | 0.46 | 0.551 | 0.595 | 0.695 | 0.814 | 0.95 | 1.226
313.15 K | 0.365 | 0.387 | 0.41 | 0.5 | 0.521 | 0.608 | 0.701 | 0.811 | 1.016
323.15 K | 0.329 | 0.351 | 0.367 | 0.446 | 0.467 | 0.531 | 0.602 | 0.691 | 0.854

CC(C)OCCO + CC(=O)N(C)C
298.15 K, 101 kPa
Settings | viscosity [mPa·s]
x1 = 0.0063 | 0.956
x1 = 0.014 | 0.97
x1 = 0.0243 | 0.983
x1 = 0.0518 | 1.016
x1 = 0.0792 | 1.049
x1 = 0.1131 | 1.092
x1 = 0.1712 | 1.167
x1 = 0.2095 | 1.225
x1 = 0.2923 | 1.336
x1 = 0.3534 | 1.422
x1 = 0.3673 | 1.443
x1 = 0.3996 | 1.494
x1 = 0.4419 | 1.555
x1 = 0.4958 | 1.63
x1 = 0.5445 | 1.704
x1 = 0.6028 | 1.782
x1 = 0.6671 | 1.871
x1 = 0.7594 | 1.973
x1 = 0.8097 | 2.044
x1 = 0.867 | 2.083
x1 = 0.9066 | 2.098
x1 = 0.9627 | 2.102
x2 = 0.006 | 2.106
x2 = 0.0146 | 2.105

CNC=O + CC(=O)N(C)C
viscosity [mPa·s], 101 kPa
Settings | x2 = 0.0697 | x2 = 0.0811 | x2 = 0.1686 | x2 = 0.2571 | x2 = 0.3498 | x2 = 0.4488 | x2 = 0.545 | x2 = 0.6533 | x2 = 0.7606 | x2 = 0.8777
293.15 K | 1.824 | 1.81 | 1.709 | 1.612 | 1.516 | 1.422 | 1.337 | 1.252 | 1.176 | 1.101
303.15 K | 1.543 | 1.532 | 1.452 | 1.374 | 1.296 | 1.219 | 1.151 | 1.083 | 1.021 | 0.962
313.15 K | 1.325 | 1.316 | 1.252 | 1.188 | 1.125 | 1.063 | 1.007 | 0.95 | 0.9 | 0.85
323.15 K | 1.157 | 1.149 | 1.096 | 1.044 | 0.991 | 0.94 | 0.893 | 0.846 | 0.803 | 0.762
